# Measured values taken from ChEMBL document CHEMBL6177968, “Development of sulfamoylbenzamide-based capsid assembly modulators for hepatitis B virus capsid assembly” (Eur J Med Chem, 2025).
# How the values were obtained:
# [1] = system: Hepatitis B virus; assay: Antiviral activity against HBV in human HepG2 cells expressing NTCP assessed as reduction in viral replication; format: functional, organism-based
# [2] = system: Hepatitis B virus; assay: Antiviral activity against HBV infected in human HepG2 cells expressing NTCP assessed as ratio of capsid associated HBV DNA level at 1 uM incubated for 6 days by Western blot analysis (reference value: 100 %); format: functional; settings: time 6 day
# [3] = system: Hepatitis B virus; assay: Antiviral activity against HBV infected in human HepG2 cells expressing NTCP assessed as intracellular HBc level at 1 uM incubated for 6 days by Western blot analysis (reference value: 100 %); format: functional; settings: time 6 day
# [4] = system: Hepatitis B virus; assay: Antiviral activity against HBV infected in human HepG2 cells expressing NTCP assessed as capsid level at 1 uM incubated for 6 days by Western blot analysis (reference value: 100 %); format: functional; settings: time 6 day
# [5] = system: Hepatitis B virus; assay: Antiviral activity against HBV in human HepaRG cells assessed as reduction in viral replication; format: functional, organism-based
# [6] = system: Hepatitis B virus; assay: Antiviral activity against HBV infected in human HepG2 cells expressing NTCP assessed as viral DNA replication at 1 uM incubated for 6 days by Southern blot analysis (reference value: 100 %); format: functional; settings: time 6 day
# [7] = Cytotoxicity in human HepG2-hNTCP cells assessed as reduction in cell viability; format: toxicity, cell-based
# [8] = Cytotoxicity in human HepaRG cells assessed as reduction in cell viability; format: toxicity, cell-based
# [9] = Selectivity index, ratio of CC50 for cytotoxicity in human HepG2-hNTCP cells assessed as reduction in cell viability to EC50 for antiviral activity against HBV in human HepG2-hNTCP cells assessed as reduction in viral replication; format: toxicity, cell-based; settings: read-out: Ratio CC50/EC50
# [10] = Selectivity index, ratio of CC50 for cytotoxicity in human HepaRG cells assessed as reduction in cell viability to EC50 for antiviral activity against HBV in human HepaRG cells assessed as reduction in viral replication; format: toxicity, cell-based; settings: read-out: Ratio CC50/EC50
# [11] = system: Hepatitis B virus; assay: Antiviral activity against HBV infected in human HepG2 cells expressing NTCP assessed as capsid associated HBV DNA level at 1 uM incubated for 6 days by Western blot analysis (reference value: 100 %); format: functional; settings: time 6 day
# [12] = Metabolic stability in rat liver microsomes assessed as compound remaining measured after 30 mins; format: ADME, Microsome; settings: read-out: Stability
# [13] = Metabolic stability in mouse liver microsomes assessed as compound remaining measured after 30 mins; format: ADME, Microsome; settings: read-out: Stability
# [14] = system: Hepatitis B virus; assay: Antiviral activity against HBV in human HepG2.2.15 cells assessed as reduction in viral replication incubated for 5 days by real-time PCR analysis; format: functional, organism-based; settings: HepG2.2.15, 120 h
# [15] = Metabolic stability in human liver microsomes assessed as compound remaining measured after 30 mins; format: ADME, Microsome; settings: read-out: Stability
# [16] = Cytotoxicity in human HepG2.2.15 cells assessed as reduction in cell viability; format: toxicity, cell-based, HepG2 2.2.15
# [17] = Selectivity index, ratio of CC50 for cytotoxicity in human HepG2.2.15 cells assessed as reduction in cell viability to EC50 for antiviral activity against HBV in human HepG2.2.15 cells assessed as reduction in viral replication; format: toxicity, cell-based; settings: read-out: Ratio CC50/EC50
Structure (SMILES),EC50 [1],Ratio [2],Activity [3],Activity [4],EC50 [5],Activity [6],CC50 [7],CC50 [8],selectivity ratio [9],selectivity ratio [10],Activity [11],remaining at 0.5 h [12],remaining at 0.5 h [13],EC50 [14],remaining at 0.5 h [15],CC50 [16],selectivity ratio [17]
O=C(Nc1cc(F)c(F)c(F)c1)c1ccc(F)c(S(=O)(=O)N2CCC(O)CC2)c1,0.32 µM,69%,82%,136%,3.74 µM,61%,24.2 µM,23 µM,75.7,6.15,95%,–,–,–,–,–,–
CC(C)(NS(=O)(=O)c1cc(C(=O)Nc2ccc(F)c(C(F)F)c2)c(N)cc1F)C1COC1,–,–,–,–,–,–,–,–,–,–,–,5.63%,0.03%,0.58 µM,17.2%,161 µM,277
